{"source": "patent US12421211B2", "about": "“Heterocyclic compounds” (Hoffmann-La Roche Inc., priority 2021, dated 2025)", "note": "Structures can show the parent of a compound that is named as a salt.", "data": [{"tested_on": "Acinetobacter baumannii ATCC17961", "assay": "Antimicrobial susceptibility testing: 90% growth inhibitory concentration (IC90) determination", "type": "cell-based", "conditions": "Acinetobacter baumannii, ATCC17961, 16 h, 90% growth inhibitory concentration, Acinetobacter baumannii ATCC17961, Iso-Sensitest broth, OD 600 nm over 16 h; read-out: ATCC 17961 IC90", "how_it_was_run": "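A. baumannii ATCC17961 at ~5×10^5 CFU/ml in Iso-Sensitest broth exposed to 10-point twofold dilutions (e.g. 50–0.097 μM final), 35±2° C. OD600 read every 20 minutes over 16h; IC50 and IC90 derived from inhibition during logarithmic growth.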", "units": {"IC90": "nM"}, "values": [{"smiles": "COc1ccccc1NC(=O)Cn1cc(-c2ccc(-c3cnc(C(=O)Nc4ccc(C(=O)N5CCN(C(=O)C6CC[N+](C)(C)CC6)CC5)c(Cl)c4)n3C)c(F)c2F)c(C)n1", "note": "[Example G7, N-[3-chloro-4-[4-(1,1-dimethylpiperidin-1-ium-4-carbonyl)piperazine-1-carbonyl]phenyl]-5-[2,3-difluoro-4-[1-[2-(2-methoxyanilino)-2-oxo-ethyl]-3-methyl-pyrazol-4-yl]phenyl]-1-methyl-imidazole-2-carboxamide; formate]", "IC90": 550}, {"smiles": "Cc1nn(CC(=O)Nc2ccc(F)cc2)cc1-c1ccc(-c2cnc(C(=O)Nc3ccc(C(=O)N4CCN(C(=O)C5CC[N+](C)(C)CC5)CC4)c(Cl)c3)n2C)c(F)c1F", "note": "[Example G8, N-[3-chloro-4-[4-(1,1-dimethylpiperidin-1-ium-4-carbonyl)piperazine-1-carbonyl]phenyl]-5-[2,3-difluoro-4-[1-[2-(4-fluoroanilino)-2-oxo-ethyl]-3-methyl-pyrazol-4-yl]phenyl]-1-methyl-imidazole-2-carboxamide; formate]", "IC90": 84}, {"smiles": "Cc1nn(CC(=O)NC2CCCCC2)cc1-c1ccc(-c2cnc(C(=O)Nc3ccc(C(=O)N4CCN(C(=O)C5CC[N+](C)(C)CC5)CC4)c(Cl)c3)n2C)c(F)c1F", "note": "[Example G9, N-[3-chloro-4-[4-(1,1-dimethylpiperidin-1-ium-4-carbonyl)piperazine-1-carbonyl]phenyl]-5-[4-[1-[2-(cyclohexylamino)-2-oxo-ethyl]-3-methyl-pyrazol-4-yl]-2,3-difluoro-phenyl]-1-methyl-imidazole-2-carboxamide; formate]", "IC90": 210}, {"smiles": "Cc1nn(CC(=O)Nc2nccs2)cc1-c1ccc(-c2cnc(C(=O)Nc3ccc(C(=O)N4CCN(C(=O)C5CC[N+](C)(C)CC5)CC4)c(Cl)c3)n2C)c(F)c1F", "note": "[Example G10, N-[3-chloro-4-[4-(1,1-dimethylpiperidin-1-ium-4-carbonyl)piperazine-1-carbonyl]phenyl]-5-[2,3-difluoro-4-[3-methyl-1-[2-oxo-2-(thiazol-2-ylamino)ethyl]pyrazol-4-yl]phenyl]-1-methyl-imidazole-2-carboxamide; formate]", "IC90": 120}, {"smiles": "Cc1nn(CC(=O)Nc2cn[nH]c2)cc1-c1ccc(-c2cnc(C(=O)Nc3ccc(C(=O)N4CCN(C(=O)C5CC[N+](C)(C)CC5)CC4)c(Cl)c3)n2C)c(F)c1F", "note": "[Example G11, N-[3-chloro-4-[4-(1,1-dimethylpiperidin-1-ium-4-carbonyl)piperazine-1-carbonyl]phenyl]-5-[2,3-difluoro-4-[3-methyl-1-[2-oxo-2-(1H-pyrazol-4-ylamino)ethyl]pyrazol-4-yl]phenyl]-1-methyl-imidazole-2-carboxamide; formate]", "IC90": 710}, {"smiles": "Cc1nn(CC(=O)Nc2cnn(C)c2)cc1-c1ccc(-c2cnc(C(=O)Nc3ccc(C(=O)N4CCN(C(=O)C5CC[N+](C)(C)CC5)CC4)c(Cl)c3)n2C)c(F)c1F", "note": "[Example G12, N-[3-chloro-4-[4-(1,1-dimethylpiperidin-1-ium-4-carbonyl)piperazine-1-carbonyl]phenyl]-5-[2,3-difluoro-4-[3-methyl-1-[2-[(1-methylpyrazol-4-yl)amino]-2-oxo-ethyl]pyrazol-4-yl]phenyl]-1-methyl-imidazole-2-carboxamide; formate]", "IC90": 450}, {"smiles": "Cc1nn(CC(=O)Nc2cccc(F)c2)cc1-c1ccc(-c2cnc(C(=O)Nc3ccc(C(=O)N4CCN(C(=O)C5CC[N+](C)(C)CC5)CC4)c(Cl)c3)n2C)c(F)c1F", "note": "[Example G13, N-[3-chloro-4-[4-(1,1-dimethylpiperidin-1-ium-4-carbonyl)piperazine-1-carbonyl]phenyl]-5-[2,3-difluoro-4-[1-[2-(3-fluoroanilino)-2-oxo-ethyl]-3-methyl-pyrazol-4-yl]phenyl]-1-methyl-imidazole-2-carboxamide; chloride]", "IC90": 130}, {"smiles": "Cc1nn(CC(=O)Nc2ccccn2)cc1-c1ccc(-c2cnc(C(=O)Nc3ccc(C(=O)N4CCN(C(=O)C5CC[N+](C)(C)CC5)CC4)c(Cl)c3)n2C)c(F)c1F", "note": "[Example G14, N-[3-chloro-4-[4-(1,1-dimethylpiperidin-1-ium-4-carbonyl)piperazine-1-carbonyl]phenyl]-5-[2,3-difluoro-4-[3-methyl-1-[2-oxo-2-(2-pyridylamino)ethyl]pyrazol-4-yl]phenyl]-1-methyl-imidazole-2-carboxamide; formate]", "IC90": 89}, {"smiles": "Cc1nn(CC(=O)Nc2ccc[n+](C)c2)cc1-c1ccc(-c2cnc(C(=O)Nc3ccc(C(=O)N4CCN(C(=O)C5CC[N+](C)(C)CC5)CC4)c(Cl)c3)n2C)c(F)c1F", "note": "[Example G15, N-[3-chloro-4-[4-(1,1-dimethylpiperidin-1-ium-4-carbonyl)piperazine-1-carbonyl]phenyl]-5-[2,3-difluoro-4-[3-methyl-1-[2-[(1-methylpyridin-1-ium-3-yl)amino]-2-oxo-ethyl]pyrazol-4-yl]phenyl]-1-methyl-imidazole-2-carboxamide; diformate]", "IC90": 300}, {"smiles": "Cc1nn(CC(=O)Nc2ncccn2)cc1-c1ccc(-c2cnc(C(=O)Nc3ccc(C(=O)N4CCN(C(=O)C5CC[N+](C)(C)CC5)CC4)c(Cl)c3)n2C)c(F)c1F", "note": "[Example G16, N-[3-chloro-4-[4-(1,1-dimethylpiperidin-1-ium-4-carbonyl)piperazine-1-carbonyl]phenyl]-5-[2,3-difluoro-4-[3-methyl-1-[2-oxo-2-(pyrimidin-2-ylamino)ethyl]pyrazol-4-yl]phenyl]-1-methyl-imidazole-2-carboxamide; formate]", "IC90": 1100}, {"smiles": "Cc1nn(CC(=O)Nc2ccncc2)cc1-c1ccc(-c2cnc(C(=O)Nc3ccc(C(=O)N4CCN(C(=O)C5CC[N+](C)(C)CC5)CC4)c(Cl)c3)n2C)c(F)c1F", "note": "[Example G17, N-[3-chloro-4-[4-(1,1-dimethylpiperidin-1-ium-4-carbonyl)piperazine-1-carbonyl]phenyl]-5-[2,3-difluoro-4-[3-methyl-1-[2-oxo-2-(4-pyridylamino)ethyl]pyrazol-4-yl]phenyl]-1-methyl-imidazole-2-carboxamide; chloride]", "IC90": 720}, {"smiles": "Cc1c(-c2ccc(-c3cnc(C(=O)Nc4ccc(C(=O)N5CCN(C(=O)C6CC[N+](C)(C)CC6)CC5)c(Cl)c4)n3C)c(F)c2F)cnn1CC(=O)NC(C)(C)C", "note": "[Example G18, 5-[4-[1-[2-(tert-butylamino)-2-oxo-ethyl]-5-methyl-pyrazol-4-yl]-2,3-difluoro-phenyl]-N-[3-chloro-4-[4-(1,1-dimethylpiperidin-1-ium-4-carbonyl)piperazine-1-carbonyl]phenyl]-1-methyl-imidazole-2-carboxamide; formate]", "IC90": 510}, {"smiles": "Cc1nn(CC(=O)NC2CCCOC2)cc1-c1ccc(-c2cnc(C(=O)Nc3ccc(C(=O)N4CCN(C(=O)C5CC[N+](C)(C)CC5)CC4)c(Cl)c3)n2C)c(F)c1F", "note": "(stereo not drawn) [Example G22, N-[3-chloro-4-[4-(1,1-dimethylpiperidin-1-ium-4-carbonyl)piperazine-1-carbonyl]phenyl]-5-[2,3-difluoro-4-[3-methyl-1-[2-oxo-2-(tetrahydropyran-3-ylamino)ethyl]pyrazol-4-yl]phenyl]-1-methyl-imidazole-2-carboxamide; formate]", "IC90": 670}, {"smiles": "Cc1nn(CC(=O)Nc2cccnn2)cc1-c1ccc(-c2cnc(C(=O)Nc3ccc(C(=O)N4CCN(C(=O)C5CC[N+](C)(C)CC5)CC4)c(Cl)c3)n2C)c(F)c1F", "note": "[Example G23, N-[3-chloro-4-[4-(1,1-dimethylpiperidin-1-ium-4-carbonyl)piperazine-1-carbonyl]phenyl]-5-[2,3-difluoro-4-[3-methyl-1-[2-oxo-2-(pyridazin-3-ylamino)ethyl]pyrazol-4-yl]phenyl]-1-methyl-imidazole-2-carboxamide; formate]", "IC90": 270}, {"smiles": "Cc1c(-c2ccc(-c3cnc(C(=O)Nc4ccc(C(=O)N5CCN(C(=O)C6CC[N+](C)(C)CC6)CC5)c(Cl)c4)n3C)c(F)c2F)cnn1CC(=O)Nc1cccnn1", "note": "[Example G25, N-[3-chloro-4-[4-(1,1-dimethylpiperidin-1-ium-4-carbonyl)piperazine-1-carbonyl]phenyl]-5-[2,3-difluoro-4-[5-methyl-1-[2-oxo-2-(pyridazin-3-ylamino)ethyl]pyrazol-4-yl]phenyl]-1-methyl-imidazole-2-carboxamide; formate]", "IC90": 1000}, {"smiles": "Cc1nn(CC(=O)NC2CCC(F)(F)CC2)cc1-c1ccc(-c2cnc(C(=O)Nc3ccc(C(=O)N4CCN(C(=O)C5CC[N+](C)(C)CC5)CC4)c(Cl)c3)n2C)c(F)c1F", "note": "[Example G26, N-[3-chloro-4-[4-(1,1-dimethylpiperidin-1-ium-4-carbonyl)piperazine-1-carbonyl]phenyl]-5-[4-[1-[2-[(4,4-difluorocyclohexyl)amino]-2-oxo-ethyl]-3-methyl-pyrazol-4-yl]-2,3-difluoro-phenyl]-1-methyl-imidazole-2-carboxamide; formate]", "IC90": 100}, {"smiles": "Cc1nn(CC(=O)Nc2cccnc2)cc1-c1ccc(-c2cnc(C(=O)Nc3ccc(C(=O)N4CCN(C(=O)C5CC[N+](C)(C)CC5)CC4)c(Cl)c3)n2C)c(F)c1F", "note": "[Example G27, N-[3-chloro-4-[4-(1,1-dimethylpiperidin-1-ium-4-carbonyl)piperazine-1-carbonyl]phenyl]-5-[2,3-difluoro-4-[3-pyridylamino)ethyl] pyrazol-4-yl]phenyl]-1-methyl-imidazole-2-carboxamide; formate]", "IC90": 120}, {"smiles": "COc1ccc(NC(=O)Cn2cc(-c3ccc(-c4cnc(C(=O)Nc5ccc(C(=O)N6CCN(C(=O)C7CC[N+](C)(C)CC7)CC6)c(Cl)c5)n4C)c(F)c3F)c(C)n2)nc1", "note": "[Example G28, N-[3-chloro-4-[4-(1,1-dimethylpiperidin-1-ium-4-carbonyl)piperazine-1-carbonyl]phenyl]-5-[2,3-difluoro-4-[1-[2-[(5-methoxy-2-pyridyl)amino]-2-oxo-ethyl]-3-methyl-pyrazol-4-yl]phenyl]-1-methyl-imidazole-2-carboxamide; formate]", "IC90": 88}]}]}
